Experimental data: PubChem BioAssay AID330 (DTP/NCI, 2004)
Several values for one entry are separate records, joined by “and”; a condition that tells them apart may be missing. Equal entries are not always repeated. Toxic doses and inconclusive results are not listed.

Test system: P388 leukemia ip, CD2F1 mice, survival T/C
Assay: NCI In Vivo Anticancer Drug Screen. Data for tumor model P388 Leukemia (intraperitoneal) in CD2F1 (CDF1) mice
Settings: endpoint: median survival time, higher = longer survival
Summary of the method: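 Mice carrying the transplanted tumor received test compound or vehicle. Survival was recorded in each group, and the value is the treated-group measurement divided by that of the vehicle-treated control group.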

[1] = dose: 50.0 mg/kg/injection, schedule: Q01DX009 (ip), vehicle: saline
[2] = dose: 100.0 mg/kg/injection, schedule: Q01DX009 (ip), vehicle: saline
[3] = dose: 200.0 mg/kg/injection, schedule: Q01DX009 (ip), vehicle: saline
[4] = dose: 50.0 mg/kg/injection, schedule: Q01DX005 (ip), vehicle: Klucel (hydroxypropylcellulose) (HPC)
[5] = dose: 100.0 mg/kg/injection, schedule: Q01DX005 (ip), vehicle: Klucel (hydroxypropylcellulose) (HPC)
[6] = dose: 200.0 mg/kg/injection, schedule: Q01DX005 (ip), vehicle: Klucel (hydroxypropylcellulose) (HPC)
[7] = dose: 50.0 mg/kg/injection, schedule: Q01DX009 (ip), vehicle: Klucel (hydroxypropylcellulose) (HPC)
[8] = dose: 100.0 mg/kg/injection, schedule: Q01DX009 (ip), vehicle: Klucel (hydroxypropylcellulose) (HPC)
[9] = dose: 200.0 mg/kg/injection, schedule: Q01DX009 (ip), vehicle: Klucel (hydroxypropylcellulose) (HPC)
[10] = dose: 25.0 mg/kg/injection, schedule: Q01DX009 (ip), vehicle: saline with Tween-80
[11] = dose: 50.0 mg/kg/injection, schedule: Q01DX009 (ip), vehicle: saline with Tween-80
[12] = dose: 100.0 mg/kg/injection, schedule: Q01DX009 (ip), vehicle: saline with Tween-80
[13] = dose: 200.0 mg/kg/injection, schedule: Q01DX009 (ip), vehicle: saline with Tween-80
[14] = dose: 100.0 mg/kg/injection, schedule: Q04DX003 (ip), vehicle: saline
[15] = dose: 200.0 mg/kg/injection, schedule: Q04DX003 (ip), vehicle: saline
[16] = dose: 400.0 mg/kg/injection, schedule: Q04DX003 (ip), vehicle: saline
[17] = dose: 50.0 mg/kg/injection, schedule: Q04DX002 (ip), vehicle: saline with Tween-80
[18] = dose: 60.0 mg/kg/injection, schedule: Q01DX005 (ip), vehicle: saline with Tween-80
[19] = dose: 120.0 mg/kg/injection, schedule: Q01DX005 (ip), vehicle: saline with Tween-80
[20] = dose: 240.0 mg/kg/injection, schedule: Q01DX005 (ip), vehicle: saline with Tween-80
[21] = dose: 12.5 mg/kg/injection, schedule: Q01DX005 (ip), vehicle: Klucel (hydroxypropylcellulose) (HPC)
[22] = dose: 25.0 mg/kg/injection, schedule: Q01DX005 (ip), vehicle: Klucel (hydroxypropylcellulose) (HPC)

SMILES: COC(=O)CC/C=N/NC(N)=O
- T/C [1]: 96 % of control
- T/C [2]: 114 % of control
- T/C [3]: 114 % of control

SMILES: Cc1ccc(S(=O)(=O)NC(=S)c2ccccc2C(=S)NS(=O)(=O)c2ccc(C)cc2)cc1
- T/C (dose: 100.0 mg/kg/injection, schedule: Q01DX001 (ip), vehicle: saline with Tween-80): 103 % of control
- T/C (dose: 200.0 mg/kg/injection, schedule: Q01DX001 (ip), vehicle: saline with Tween-80): 110 % of control
- T/C (dose: 400.0 mg/kg/injection, schedule: Q01DX001 (ip), vehicle: saline with Tween-80): 104 % of control

SMILES: O=C(O)/C(=C/c1ccc([N+](=O)[O-])cc1)c1ccccc1
- T/C [4]: 102 % of control
- T/C [5]: 95 % of control
- T/C [6]: 102 % of control

SMILES: NC(=O)c1ncn(C2OC(CO)C(O)C2O)c1O (stereo not drawn)
- T/C (dose: 12.5 mg/kg/injection, schedule: Q01DX009 (ip), vehicle: Klucel (hydroxypropylcellulose) (HPC)): 107 % of control
- T/C (dose: 25.0 mg/kg/injection, schedule: Q01DX009 (ip), vehicle: Klucel (hydroxypropylcellulose) (HPC)): 113 % of control
- T/C [7]: 115 % of control
- T/C [8]: 113 % of control
- T/C [9]: 96 % of control

SMILES: O=c1c(Cl)cc(Cl)cn1S(=O)(=O)c1ccc([N+](=O)[O-])cc1
- T/C [10]: 106 % of control
- T/C [11]: 105 % of control
- T/C [12]: 100 % of control and 104 % of control
- T/C [13]: 104 % of control and 89 % of control
- T/C (dose: 400.0 mg/kg/injection, schedule: Q01DX009 (ip), vehicle: saline with Tween-80): 89 % of control

SMILES: [C-]#[O+].[C-]#[O+].[C-]#[O+].[CH3][Sn]([c]1ccccc1)[c]1ccccc1.[W].[c-]1[c-][c-][cH-][c-]1
- T/C [14]: 103 % of control
- T/C [15]: 110 % of control
- T/C [16]: 110 % of control

SMILES: NC(=S)c1ccc(N=Cc2ccccn2)cc1
- T/C (dose: 25.0 mg/kg/injection, schedule: Q01DX001 (ip), vehicle: Klucel (hydroxypropylcellulose) (HPC)): 100 % of control
- T/C (dose: 50.0 mg/kg/injection, schedule: Q01DX001 (ip), vehicle: Klucel (hydroxypropylcellulose) (HPC)): 100 % of control
- T/C (dose: 100.0 mg/kg/injection, schedule: Q01DX001 (ip), vehicle: Klucel (hydroxypropylcellulose) (HPC)): 103 % of control and 106 % of control
- T/C (dose: 200.0 mg/kg/injection, schedule: Q01DX001 (ip), vehicle: Klucel (hydroxypropylcellulose) (HPC)): 102 % of control
- T/C (dose: 400.0 mg/kg/injection, schedule: Q01DX001 (ip), vehicle: Klucel (hydroxypropylcellulose) (HPC)): 105 % of control

SMILES: CN1CCC/C1=C1/C(=O)Nc2ccc(Cl)cc21
- T/C [4]: 108 % of control
- T/C [5]: 107 % of control
- T/C [6]: 102 % of control

SMILES: O=C1SC2(CCCCC2)SC1=O
- T/C (dose: 50.0 mg/kg/injection, schedule: Q04DX003 (ip), vehicle: saline with Tween-80): 109 % of control
- T/C (dose: 100.0 mg/kg/injection, schedule: Q04DX003 (ip), vehicle: saline with Tween-80): 104 % of control
- T/C (dose: 200.0 mg/kg/injection, schedule: Q04DX003 (ip), vehicle: saline with Tween-80): 104 % of control

SMILES: CC(=O)c1ccc[n+](CCc2c[nH]c3ccccc23)c1
- T/C (dose: 12.5 mg/kg/injection, schedule: Q01DX009 (ip), vehicle: saline with Tween-80): 104 % of control
- T/C [10]: 113 % of control
- T/C [11]: 109 % of control

SMILES: CC(C)(/C=N/O)N1CC=CCC1
- T/C (dose: 12.5 mg/kg/injection, schedule: Q04DX002 (ip), vehicle: saline with Tween-80): 101 % of control
- T/C (dose: 25.0 mg/kg/injection, schedule: Q04DX002 (ip), vehicle: saline with Tween-80): 100 % of control
- T/C [17]: 97 % of control

SMILES: CCOc1ccn(C2C=CC(=O)O2)c(=O)n1 (stereo not drawn)
- T/C (dose: 6.25 mg/kg/injection, schedule: Q01DX005 (ip), vehicle: saline): 102 % of control and 105 % of control
- T/C (dose: 12.5 mg/kg/injection, schedule: Q01DX005 (ip), vehicle: saline): 110 % of control and 112 % of control
- T/C (dose: 25.0 mg/kg/injection, schedule: Q01DX005 (ip), vehicle: saline): 111 % of control and 118 % of control
- T/C (dose: 50.0 mg/kg/injection, schedule: Q01DX005 (ip), vehicle: saline): 118 % of control and 120 % of control

SMILES: CC(C)C(=O)CC(=O)CCC(=O)Nc1cccc(Cl)c1
- T/C [18]: 105 % of control
- T/C [19]: 102 % of control
- T/C [20]: 107 % of control

SMILES: O=C1O[C@@H]2C3COC(O)[C@](O)(O3)[C@@H]2/C1=C\c1ccc(O)cc1 (stereo partly drawn)
- T/C (dose: 4.0 mg/kg/injection, schedule: Q01DX005 (ip), vehicle: DMSO): 115 % of control
- T/C (dose: 8.0 mg/kg/injection, schedule: Q01DX005 (ip), vehicle: DMSO): 109 % of control
- T/C (dose: 16.0 mg/kg/injection, schedule: Q01DX005 (ip), vehicle: DMSO): 113 % of control
- T/C (dose: 32.0 mg/kg/injection, schedule: Q01DX005 (ip), vehicle: DMSO): 113 % of control

SMILES: CC1=CC(=O)C2(OC3OC(C)C(O)C(O)C3O)C=COC(OC3OC(CO)C(O)C(O)C3O)C12 (stereo not drawn)
- T/C [21]: 98 % of control
- T/C [22]: 95 % of control
- T/C [4]: 95 % of control
- T/C [5]: 95 % of control
- T/C [6]: 95 % of control

SMILES: O=P(N1CC1)(N1CC1)N1CC1
- T/C (dose: 3.0 mg/kg/injection, schedule: Q01DX009 (ip), vehicle: saline): 216 % of control

SMILES: O=c1oc(-c2ccccc2)nnc1-c1ccccc1
- T/C [7]: 100 % of control
- T/C [8]: 101 % of control
- T/C [9]: 107 % of control

SMILES: CC(=O)OCC1OC(OC2C=C(O[Si](C)(C)C)C[C@H]3C(=O)C=CC(=O)[C@@H]23)C(OC(C)=O)C(OC(C)=O)C1OC(C)=O (stereo partly drawn)
- T/C (dose: 7.5 mg/kg/injection, schedule: Q01DX005 (ip), vehicle: saline with Tween-80): 98 % of control
- T/C (dose: 15.0 mg/kg/injection, schedule: Q01DX005 (ip), vehicle: saline with Tween-80): 98 % of control
- T/C [18]: 98 % of control and 102 % of control

SMILES: COC(=O)CCc1cc(=O)oc2c(I)c(O)cc(O)c12
- T/C (dose: 8.75 mg/kg/injection, schedule: Q01DX005 (ip), vehicle: Klucel (hydroxypropylcellulose) (HPC)): 99 % of control
- T/C (dose: 17.5 mg/kg/injection, schedule: Q01DX005 (ip), vehicle: Klucel (hydroxypropylcellulose) (HPC)): 93 % of control
- T/C (dose: 35.0 mg/kg/injection, schedule: Q01DX005 (ip), vehicle: Klucel (hydroxypropylcellulose) (HPC)): 101 % of control

SMILES: Cc1cnc(C#N)c(C#N)n1
- T/C (dose: 6.25 mg/kg/injection, schedule: Q01DX005 (ip), vehicle: Klucel (hydroxypropylcellulose) (HPC)): 103 % of control
- T/C [21]: 106 % of control
- T/C [22]: 100 % of control
- T/C [4]: 116 % of control

SMILES: CCCCCN(CCCCC)CC(O)CN1CCCc2ccccc21 (stereo not drawn)
- T/C (dose: 50.0 mg/kg/injection, schedule: Q01DX005 (ip), vehicle: saline with Tween-80): 102 % of control
- T/C (dose: 100.0 mg/kg/injection, schedule: Q01DX005 (ip), vehicle: saline with Tween-80): 111 % of control
- T/C (dose: 200.0 mg/kg/injection, schedule: Q01DX005 (ip), vehicle: saline with Tween-80): 112 % of control

SMILES: CC(=O)SC1CC(=O)OC1=O (stereo not drawn)
- T/C (dose: 25.0 mg/kg/injection, schedule: Q01DX009 (ip), vehicle: saline): 100 % of control
- T/C [1]: 105 % of control
- T/C [2]: 96 % of control
- T/C [3]: 105 % of control

SMILES: CCN(CC)C(=O)CSc1ccc(Cl)nn1
- T/C [11]: 97 % of control
- T/C [12]: 98 % of control
- T/C [13]: 94 % of control

SMILES: COc1ccc(C)cc1C(CC(=O)O)CC(=O)N(CCCl)CCCl (stereo not drawn)
- T/C [14]: 102 % of control
- T/C [15]: 100 % of control
- T/C [16]: 102 % of control

SMILES: O=C(NN1C(=O)CSC1c1ccc(F)cc1)c1ccncc1 (stereo not drawn)
- T/C [18]: 99 % of control
- T/C [19]: 100 % of control
- T/C [20]: 92 % of control

SMILES: Cc1noc(NC(=O)NC(=O)c2c(F)cccc2F)c1C
- T/C [17]: 99 % of control
- T/C (dose: 100.0 mg/kg/injection, schedule: Q04DX002 (ip), vehicle: saline with Tween-80): 99 % of control
- T/C (dose: 200.0 mg/kg/injection, schedule: Q04DX002 (ip), vehicle: saline with Tween-80): 100 % of control
